Measured values: PubChem BioAssay (NCI)
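The compound was tested at five concentrations on cells cultured in 96-well plates, with a 48-hour exposure period. Here, GI50 denotes the concentration required for 50% inhibition of growth. TGI denotes the concentration required for complete inhibition of growth.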

Assays:
Experiment in all cases: DTP human tumour cell line panel, 48 h
HL-60(TB) leukemia = tested on: HL-60(TB) leukemia
MALME-3M melanoma = tested on: MALME-3M melanoma
ACHN renal = tested on: ACHN renal
SF-268 CNS = tested on: SF-268 CNS
SK-MEL-5 melanoma = tested on: SK-MEL-5 melanoma
NCI-H226 lung = tested on: NCI-H226 lung
A549 NSCLC = tested on: A549 NSCLC
T-47D breast = tested on: T-47D breast
RPMI-8226 leukemia = tested on: RPMI-8226 leukemia
SR leukemia = tested on: SR leukemia

| SMILES | TGI (HL-60(TB) leukemia) [µM] | TGI (MALME-3M melanoma) [µM] | TGI (ACHN renal) [µM] | TGI (SF-268 CNS) [µM] | TGI (SK-MEL-5 melanoma) [µM] | TGI (NCI-H226 lung) [µM] | TGI (A549 NSCLC) [µM] | TGI (T-47D breast) [µM] | TGI (RPMI-8226 leukemia) [µM] | TGI (SR leukemia) [µM] | GI50 (HL-60(TB) leukemia) [µM] | GI50 (MALME-3M melanoma) [µM] | GI50 (ACHN renal) [µM] | GI50 (T-47D breast) [µM] | GI50 (SF-268 CNS) [µM] | GI50 (SK-MEL-5 melanoma) [µM] | GI50 (RPMI-8226 leukemia) [µM] | GI50 (NCI-H226 lung) [µM] | GI50 (A549 NSCLC) [µM] |
| --- | --- | --- | --- | --- | --- | --- | --- | --- | --- | --- | --- | --- | --- | --- | --- | --- | --- | --- | --- |
| O=C(NN1C(=O)C(Cl)C1c1c(O)ccc2ccccc12)c1ccccc1O (centres undefined) | > 100 | > 100 | > 100 | > 100 | > 100 | > 100 | > 100 | – | – | – | – | – | – | – | – | – | – | – | – |
| O/N=C1\CSc2ccccc2C1 | > 100 | > 100 | > 100 | > 100 | > 100 | > 100 | > 100 | > 100 | > 100 | > 100 | – | – | – | – | – | – | – | – | – |
| Cc1cc(C)nc(NC(=S)Nc2ccc(Cl)cc2)c1 | > 100 | > 100 | – | > 100 | > 100 | > 100 | > 100 | > 100 | > 100 | > 100 | – | – | – | – | – | – | – | – | – |
| COc1ccc(/C=N/n2c(Cc3ccccc3)n[nH]c2=O)cc1 | – | > 100 | > 100 | > 100 | – | > 100 | > 100 | > 100 | > 100 | – | – | – | – | – | – | – | – | – | – |
| CO[C@]12C[C@@H](CNC(=O)c3cc(Br)c[nH]3)O[C@H]1NC(=O)N2 | > 100 | > 100 | > 100 | > 100 | > 100 | > 100 | > 100 | > 100 | > 100 | – | – | – | – | – | – | – | – | – | – |
| CCOc1cc2c(cc1O)CC[C@@H]1[C@@H]2CC[C@]2(C)[C@@H](O)CC[C@@H]12 | 0.352 | 50 | > 96.1 | 48.5 | 2.48 | 3.95 | 48.1 | – | 7.86 | 1.02 | – | – | – | – | – | – | – | – | – |
| Clc1cccc2[nH]ncc12 | > 100 | – | > 100 | – | > 100 | > 100 | > 100 | > 100 | > 100 | > 100 | – | – | – | – | – | – | – | – | – |
| O[C@]12c3ccccc3C1CCCCC2N1CCOCC1 (some centres undefined) | > 100 | > 100 | > 100 | > 100 | > 100 | > 100 | > 100 | – | > 100 | > 100 | – | – | – | – | – | – | – | – | – |
| CC1=NNC(=O)[C@H]2[C@H]1CCC1[C@@H]2CC[C@]2(C)[C@@H](O)CC[C@@H]12 (some centres undefined) | > 100 | > 100 | > 100 | > 100 | > 100 | > 100 | > 100 | > 100 | > 100 | – | – | – | – | – | – | – | – | – | – |
| FC(F)(F)c1cnc(N/N=C(/c2ccccc2)c2ccccn2)c(Cl)c1 | – | – | 13.2 | 21.8 | 21.2 | 50.4 | 14.8 | – | > 100 | 55.3 | – | – | – | – | – | – | – | – | – |
| CCOP(=O)(/C=C\n1ccc(=O)[nH]c1=O)OCC | > 100 | – | > 100 | > 100 | > 100 | > 100 | > 100 | > 100 | > 100 | – | – | – | – | – | – | – | – | – | – |
| C/C(CC(=O)Nc1cccc(Cl)c1C)=N\N=C(N)N | > 100 | > 100 | > 100 | > 100 | > 100 | > 100 | > 100 | – | > 100 | – | – | – | – | – | – | – | – | – | – |
| O=C(Nc1ccc(Cl)c(C(F)(F)F)c1)C(=O)c1c(O)c2ccccc2oc1=O | – | > 100 | > 100 | > 100 | > 100 | > 100 | > 100 | > 100 | > 100 | > 100 | – | – | – | – | – | – | – | – | – |
| CC1(CCCCO)C=CC(S(=O)(=O)c2ccccc2)CC1 (centres undefined) | – | 12.1 | 18.1 | 12.4 | 15.4 | 9.03 | 13.6 | – | 11 | 6.71 | – | – | – | – | – | – | – | – | – |
| CCCCOc1ccc(S(=O)(=O)/N=C(\N)Nc2ccc(Cl)cc2)cc1 | – | 28.5 | 27.7 | 29.3 | 47.8 | 44.4 | 45.8 | 29.1 | 45.8 | 28.7 | – | – | – | – | – | – | – | – | – |
| CSc1nc(C)cc(=O)n1C1OC(COC(C)=O)C(OC(C)=O)C(OC(C)=O)C1OC(C)=O (centres undefined) | > 100 | > 100 | > 100 | > 100 | > 100 | > 100 | > 100 | – | > 100 | > 100 | – | – | – | – | – | – | – | – | – |
| Cc1cc(OC(=O)Nc2ccc(Cl)cc2)ccc1C(=S)Nc1ccccc1 | 53.7 | > 100 | > 100 | > 100 | > 100 | – | > 100 | > 100 | > 100 | > 100 | – | – | – | – | – | – | – | – | – |
| COc1ccc2nc(-c3ccc(O)cc3)ccc2c1 | > 100 | > 100 | > 100 | – | > 100 | > 100 | > 100 | – | > 100 | > 100 | – | – | – | – | – | – | – | – | – |
| COC1(c2ccccc2)NC(=S)NN=C1c1ccccc1 (centres undefined) | 54.5 | > 100 | > 100 | > 100 | 80.7 | – | > 100 | > 100 | > 100 | 85.8 | – | – | – | – | – | – | – | – | – |
| CC(C)(CC1(C)NC(=O)NC1=O)OCc1ccccc1 (centres undefined) | – | > 100 | > 100 | > 100 | > 100 | – | > 100 | > 100 | > 100 | > 100 | – | – | – | – | – | – | – | – | – |
| CCN(CC)Cc1ccc(Nc2c3ccccc3nc3ccccc23)cc1 | > 100 | 3.61 | 1.22 | 9.38 | 3.15 | – | 2.82 | 16.7 | – | 22.2 | – | – | – | – | – | – | – | – | – |
| CCN(CC)C(=S)SSCCO | 8.96 | 35 | 35.8 | 37.1 | 53.1 | > 100 | > 100 | 34.2 | 39.5 | – | 2.17 | 17.9 | 18.7 | 15.4 | 19 | 16.5 | 14.4 | > 100 | 79.9 |
| CCOC(=O)C(C)(Cc1ccc(O)cn1)NC(=O)c1ccccc1 (centres undefined) | > 100 | > 100 | > 100 | > 100 | > 100 | > 100 | > 100 | – | > 100 | > 100 | – | – | – | – | – | – | – | – | – |
